According to the NIST ThermoML archive (doi:10.1016/j.fluid.2007.09.021):
Numbers after ± are expanded uncertainties.

Assay: activity coefficient (dimensionless); of the first substance listed, at infinite dilution; xn = mol fraction of the nth substance listed
Details: Liquid, x1 = 0
[1] = 368.15 K, Differential ebulliometry
[2] = 378.15 K, Differential ebulliometry
[3] = 388.15 K, Differential ebulliometry
[4] = 398.15 K, Differential ebulliometry
[5] = 409.15 K, Differential ebulliometry
[6] = 343.15 K, Differential ebulliometry

For `CCCO` [propan-1-ol] + CCc1ccccc1, the activity coefficient (293.15 K, Chromatography) was 15.8 ± 0.8, the activity coefficient (303.15 K, Chromatography) was 12.9 ± 0.7 and the activity coefficient (313.15 K, Chromatography) was 10.3 ± 0.7. It also gave an activity coefficient (323.15 K, Chromatography) of 8.7 ± 0.44.
For `CCCCCCO` [hexan-1-ol] + CCc1ccccc1, the activity coefficient [1] was 3.25 ± 0.06, the activity coefficient [2] was 2.95 ± 0.18 and the activity coefficient [3] was 2.62 ± 0.06. It also gave an activity coefficient [4] of 2.43 ± 0.1 and an activity coefficient [5] of 2.11 ± 0.04.
`CCc1ccccc1` [ethylbenzene] + CCCO showed an activity coefficient [6] of 4.48 ± 0.08, an activity coefficient (353.15 K, Differential ebulliometry) of 4.21 ± 0.08 and an activity coefficient (363.15 K, Differential ebulliometry) of 3.98 ± 0.08. For the same compound, the activity coefficient (370.15 K, Differential ebulliometry) was 3.8 ± 0.08.
For `CO` [methanol] + CCc1ccccc1, the activity coefficient (293.15 K, Chromatography) was 26.2 ± 1.3, the activity coefficient (303.15 K, Chromatography) was 21.4 ± 1.1 and the activity coefficient (313.15 K, Chromatography) was 18 ± 1. The activity coefficient (323.15 K, Chromatography) was 15 ± 0.8.
Work on `CCO` [ethanol] + CCc1ccccc1 yielded an activity coefficient (293.15 K, Chromatography) of 20.1 ± 0.8, an activity coefficient (303.15 K, Chromatography) of 16.2 ± 0.7 and an activity coefficient (313.15 K, Chromatography) of 13.7 ± 0.7. It also gave an activity coefficient (323.15 K, Chromatography) of 11.2 ± 0.4.
For `CCc1ccccc1` [ethylbenzene] + CO, the activity coefficient (308.15 K, Differential ebulliometry) was 12.8 ± 0.2, the activity coefficient (318.15 K, Differential ebulliometry) was 12.2 ± 0.2 and the activity coefficient (328.15 K, Differential ebulliometry) was 11.8 ± 0.2. The activity coefficient (337.15 K, Differential ebulliometry) was 11.4 ± 0.2.
`CCCCO` [butan-1-ol] + CCc1ccccc1 showed an activity coefficient (303.15 K, Chromatography) of 11.8 ± 0.6, an activity coefficient (313.15 K, Chromatography) of 9.49 ± 0.5 and an activity coefficient (323.15 K, Chromatography) of 7.63 ± 0.39. It also gave an activity coefficient [4] of 2.55 ± 0.26 and an activity coefficient [5] of 2.24 ± 0.14.
`CCc1ccccc1` [ethylbenzene] + CCCCCO gave an activity coefficient (323.15 K, Chromatography) of 3.37 ± 0.12.
`CCc1ccccc1` [ethylbenzene] + CCCCCCO gave an activity coefficient (323.15 K, Chromatography) of 2.77 ± 0.11.
With `CCc1ccccc1` [ethylbenzene] + CCCCO the activity coefficient (323.15 K, Chromatography) was 3.84 ± 0.15.
With `CCc1ccccc1` [ethylbenzene] + CCO the activity coefficient (323.15 K, Differential ebulliometry) was 6.86 ± 0.14, the activity coefficient (333.15 K, Differential ebulliometry) was 6.53 ± 0.14 and the activity coefficient [6] was 6.19 ± 0.12. It also gave an activity coefficient (351.15 K, Differential ebulliometry) of 5.9 ± 0.12.
In the case of `CCCCCO` [pentan-1-ol] + CCc1ccccc1, the activity coefficient [1] is reported as 3.62 ± 0.08, the activity coefficient [2] is reported as 3.19 ± 0.06 and the activity coefficient [3] is reported as 2.89 ± 0.06. It also gave an activity coefficient [4] of 2.57 ± 0.06 and an activity coefficient [5] of 2.29 ± 0.06.
